Assay results published in US11214563B2 (JANSSEN PHARMACEUTICA NV, priority 2019, dated 2022).

Legend:
[1] = molecular target: human GluN1/GluN2B NMDA receptors (Homo sapiens (Human), UniProt Q05586+Q13224); assay: Cell-based calcium flux (FLIPR) assay on cloned human NR1/NR2B ion channels expressed in mammalian cells; conditions: standard assay, glutamate ~EC40, 10 μM glycine
Experimental: (§1) Effects of Test Articles on Cloned Human NR1/NR2B Ion Channels Expressed in Mammalian Cells
(§2) NMDA receptors are ion channels that are highly permeable to Ca^2+ ions, rendering it possible to monitor NMDA receptor function using cell-based calcium flux assay. In this assay, co-agonists glutamate and glycine are added to cells heterologously expressing human GluN1/GluN2B NMDA receptors to initiate cellular Ca^2+ influx. The time course of the changes in intracellular calcium is measured using a fluorescent dye and a FLIPR (Fluorometric Imaging Plate Reader) device.
(§3) Twenty four hours before measurements, the expression of the NMDA receptors in the stable cell line is induced with Tet-On inducible system in the presence of a non-selective NMDA receptor blocker. On the day of the experiment, cell culture media is carefully washed and the cells are loaded with Calcium 5 Dye Kit (Molecular Devices) in dye loading buffer containing 137 mM NaCl, 4 mM KCl, 2 mM CaCl2), 0.5 mM MgCl2(standard assay) or 1.5 mM MgCl2 (HTS assay), 10 mM HEPES and 5 mM D-glucose; pH 7.4. After 1 h incubation at the room temperature, the dye is washed away with the assay buffer (137 mM NaCl (standard assay) or 150 mM (HTS assay), 4 mM KCl (standard assay) or 3 mM (HTS assay), 2 mM CaCl2), 0.01 mM EDTA, 10 mM HEPES and 5 mM D-glucose; pH 7.4) In the FLIPR TETRA reader, various concentrations of the test compounds are added to the cells for 5 min while fluorescence is monitored to detect potential agonist activity. Next, co-agonists, glutamate and glycine are added for another 5 minutes. The concentration of glutamate corresponding to ˜EC40 (standard assay) or EC40 (HTS assay) is used to maximize the assay's signal window and ability to detect NMDA receptor antagonists and negative allosteric modulators. A saturating concentration (10 μM) of glycine is also present in the assay. A non-selective NMDA receptor antagonist, (+)MK-801 is used as a positive control for antagonist activity. The fluorescent signal in the presence of test compounds is quantified and normalized to the signal defined by the appropriate control wells.

[2] = Liver microsomal stability (extraction ratio); format: in vitro ADME; conditions: test compound 1 μM; 0.5 mg/mL liver microsomes; species not stated in Table 4 (method: mouse, rat, and human)
Experimental: Protocol for Liver Microsomal Stability (Extraction Ratio)
Liver Microsomal Stability. Microsomal stability studies (Chrovian et al, “H-Pyrrolo[3,2-b]pyridine GluN2B-Selective Negative Allosteric Modulators”. ACS Med Chem Lett. 2019 Jan. 10; 10(3):261-266) were conducted on a Biomek@ FX Robotic Liquid Handling Workstation (Beckman Coulter, Brea, Calif.), which consists of a 96-channel pipette head, a 12-position workstation deck, and a plate incubator. Test compounds (1 μM) were spiked in a reaction mix consisting of 100 mM potassium phosphate buffer (pH 7.4), 3 mM MgCl2, and 0.5 mg/mL liver microsomes from mouse, rat, and human (BD Gentest). The reaction was brought to 37° C. and initiated by adding NADPH to a final concentration of 1 mM. After mixing on the plate deck, […] aliquots were excised from the reaction plate at 0, 5, 10, 20, 40, and 60 min and quenched with four volumes of acetonitrile spiked with […] of the internal standard phenytoin. Quenched plates were centrifuged at 5700 rpm for 10 min at 4° C., and supernatant was diluted 1:3 in water before LC/MS/MS analysis. The compound half-lives were derived from plots of the ln of percent remaining compound over time to determine the intrinsic clearance. The predicted hepatic clearance was derived from the intrinsic clearance value using equations from the well-stirred model (Current Drug Metabolism, 2008, 9, 940-951), where no correction was made plasma protein binding and the blood to plasma concentration ratio was assumed to be one. The extraction ratio (ER) was calculated by dividing the predicted hepatic clearance by species blood flow (Q), where Q is 90, 55, and 21.7 mL/min/kg for mouse, rat and human, respectively

[3] = molecular target: human GluN1/GluN2B NMDA receptors (Homo sapiens (Human), UniProt Q13224); assay: Cell-based calcium flux (FLIPR) assay on cloned human NR1/NR2B ion channels expressed in mammalian cells; conditions: standard assay, glutamate ~EC40, 10 μM glycine
Experimental: as §1, §2, §3

Sequence of human GluN1/GluN2B NMDA receptors (Homo sapiens (Human), UniProt Q05586+Q13224) (Q13224 27-1484, other chains not shown): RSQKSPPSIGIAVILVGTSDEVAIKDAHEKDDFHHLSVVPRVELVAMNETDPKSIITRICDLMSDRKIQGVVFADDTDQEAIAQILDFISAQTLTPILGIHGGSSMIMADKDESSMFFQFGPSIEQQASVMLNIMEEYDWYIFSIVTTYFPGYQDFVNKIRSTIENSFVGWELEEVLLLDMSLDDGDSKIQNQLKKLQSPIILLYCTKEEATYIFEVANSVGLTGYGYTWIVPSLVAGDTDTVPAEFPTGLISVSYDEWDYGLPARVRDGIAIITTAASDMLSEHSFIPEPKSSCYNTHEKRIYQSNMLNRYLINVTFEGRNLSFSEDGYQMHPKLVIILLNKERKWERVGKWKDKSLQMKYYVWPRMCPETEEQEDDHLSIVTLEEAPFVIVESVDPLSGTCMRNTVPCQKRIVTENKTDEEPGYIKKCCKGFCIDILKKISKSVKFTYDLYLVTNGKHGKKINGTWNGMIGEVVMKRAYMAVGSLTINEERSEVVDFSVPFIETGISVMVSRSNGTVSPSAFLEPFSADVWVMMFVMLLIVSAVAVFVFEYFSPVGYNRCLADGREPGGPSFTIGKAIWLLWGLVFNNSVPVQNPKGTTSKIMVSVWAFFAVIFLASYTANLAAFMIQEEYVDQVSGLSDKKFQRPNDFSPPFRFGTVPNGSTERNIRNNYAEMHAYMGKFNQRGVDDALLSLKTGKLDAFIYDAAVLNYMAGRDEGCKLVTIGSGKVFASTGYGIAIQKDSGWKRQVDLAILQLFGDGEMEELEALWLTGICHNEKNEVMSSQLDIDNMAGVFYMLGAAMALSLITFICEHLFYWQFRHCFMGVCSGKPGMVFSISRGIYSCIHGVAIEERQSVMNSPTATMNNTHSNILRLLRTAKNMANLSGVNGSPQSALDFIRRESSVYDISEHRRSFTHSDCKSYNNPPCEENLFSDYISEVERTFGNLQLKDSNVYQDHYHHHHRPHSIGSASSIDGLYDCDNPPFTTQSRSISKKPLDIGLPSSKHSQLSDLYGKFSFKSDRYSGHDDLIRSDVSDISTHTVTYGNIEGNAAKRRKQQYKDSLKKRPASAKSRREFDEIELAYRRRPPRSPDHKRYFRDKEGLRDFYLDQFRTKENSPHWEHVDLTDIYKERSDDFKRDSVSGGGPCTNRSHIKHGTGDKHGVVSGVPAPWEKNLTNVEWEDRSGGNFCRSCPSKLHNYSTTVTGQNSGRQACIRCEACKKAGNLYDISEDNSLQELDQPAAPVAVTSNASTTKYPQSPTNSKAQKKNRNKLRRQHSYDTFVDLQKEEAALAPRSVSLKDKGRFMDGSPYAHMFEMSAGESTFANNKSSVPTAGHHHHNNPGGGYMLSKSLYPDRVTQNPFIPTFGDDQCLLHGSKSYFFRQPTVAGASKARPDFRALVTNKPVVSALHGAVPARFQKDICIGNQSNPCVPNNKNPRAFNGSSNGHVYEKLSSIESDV
Sequence of human GluN1/GluN2B NMDA receptors (Homo sapiens (Human), UniProt Q13224) (Q13224 27-1484, other chains not shown): as above

Row | IC50 [1] | Extraction Ratio @ 1 μM [2] | IC50 [3] | Compound
1 | 42 nM | 0.41 | – | CN(C)C(=O)Cn1ncc2ncc(-c3ccc(F)c(C(F)F)c3)nc21 [Example 10, 2-[6-[3-(Difluoromethyl)-4-fluoro-phenyl]pyrazolo[3,4-b]pyrazin-1-yl]-N,N-dimethyl-acetamide]
2 | – | 0.45 | 59 nM | O=C(Cn1ncc2ncc(-c3ccc(F)c(OC(F)F)c3)nc21)N1CCC1 [Example 28, 1-(Azetidin-1-yl)-2-[6-[3-(difluoromethoxy)-4-fluoro-phenyl]pyrazolo[3,4-b]pyrazin-1-yl]ethanone]
3 | 37 nM | <0.298 | – | O=C(Cn1ncc2ncc(-c3ccc(F)c(C(F)F)c3)nc21)N1CC(F)C1 [Example 32, 2-[6-[3-(Difluoromethyl)-4-fluoro-phenyl]pyrazolo[3,4-b]pyrazin-1-yl]-1-(3-fluoroazetidin-1-yl)ethanone]

The next lines start with the compound.

Row | Compound | IC50 [1] | Extraction Ratio @ 1 μM [2] | IC50 [3]
4 | CN(C)C(=O)Cn1ncc2ncc(-c3ccc(Cl)c(C(F)F)c3)nc21 [Example 12, 2-[6-[4-Chloro-3-(difluoromethyl)phenyl]pyrazolo[3,4-b]pyrazin-1-yl]-N,N-dimethyl-acetamide] | 36 nM | 0.54 | –
5 | O=C(Cn1ncc2ncc(-c3ccc(F)c(C(F)F)c3)nc21)N1CCC1 [Example 24, 1-(Azetidin-1-yl)-2-[6-[3-(difluoromethyl)-4-fluoro-phenyl]pyrazolo[3,4-b]pyrazin-1-yl]ethanone] | 37 nM | <0.298 | –
6 | O=C(Cn1ncc2ncc(-c3ccc(F)c(OC(F)F)c3)nc21)N1CC(F)C1 [Example 37, 2-[6-[3-(Difluoromethoxy)-4-fluoro-phenyl]pyrazolo[3,4-b]pyrazin-1-yl]-1-(3-fluoroazetidin-1-yl)ethanone] | – | 0.46 | 92 nM
